The values that follow come from patent US12497408B2, “Tetracyclic compounds and methods for the treatment of Zika virus infection” (priority 2021, dated 2025).

In this experiment the test system is ZIKV. Briefly: ZIKV reporter virus-based antiviral screening on Huh7 cells. The experiment is classed as cell-based, Zika virus. To be noted: Zika virus, Huh-7, 48 h, Huh7 cells infected with recombinant luciferase reporter ZIKV (MOI about 0.1), luciferase signal. The source says:
Protocol for ZIKV reporter virus-based antiviral screening on Huh7 cells:
• Human hepatocyte-derived carcinoma cell line (Huh7) 2. Reagents • ViviRen™ Live Cell Substrate (Promega, Cat #E6492) or Nano Glo assay system (Promega: N1130) • White opaque 96-well TC-treated microplates (Corning, Cat #3916) • 96-well Clear V-Bottom TC-treated Microplate (Corning, Cat #3894) • Complete cell culture media: DMEM (Gibco, Cat #10569) supplemented with 10% FBS (HyClone, Cat #SH30071.03IH25-40)+1% MEM Non-Essential Amino Acids Solution 100×(Gibco, Cat #11140050)+1% Penicillin-Streptomycin (10,000 U/mL) (Gibco, Cat #15140122). • Assay media: DMEM media (Gibco, Cat #31053028) supplemented with 2% FBS, 2% GlutaMAX™ Supplement (Gibco Cat #35050061), 1% Sodium Pyruvate solution (Gibco, Cat #11360070), 1% MEM Non-Essential Amino Acids Solution 100× and 1% Penicillin-Streptomycin (10,000 U/mL). • Trypsin-EDTA solution (Gibco, Cat #25200056) 3. Virus • Recombinant ZIKV strain with Renilla luciferase gene (strain FSS-Rlu) or Nano luciferase gene (Strain PRV-Nano, Dakar-Nano) 4. Instruments • BioTek Cytation 5 or other plate-readers for chemiluminescence detection model. • Eppendorf plate centrifuge • Plate shaker • Eppendorf multichannel pipettes Procedures Day 1: Preparation of Cells • Human hepatocyte-derived carcinoma cell line (Huh7) cells were detached from a T-175 flask by using a Trypsin-EDTA solution. The detached cells were suspended in complete culture media in a sterile 50-ml conical tube. • The 50-ml conical tube was centrifuged at 1200×rpm for 3 min at room temperature. • The cells were resuspended in assay media. The cell numbers were counted, and the cells diluted to a density of 3×10^5 cells/ml. • The cells were plated at 50 μl cells per well in White opaque 96-well plates (assay plates). Gently shake the plates to ensure cells to attach to the plate evenly. • The plated cells were incubated in a humidified incubator (37° C. with 5% CO2). Day 2: Infection • 1) Nine serial (2-fold or 3-fold) concentrated compounds were prepared using 90% DMSO solution and DMSO controls in a clear V-bottom 96-well plate (compound plate). • For example:
• 2) The reporter virus stock was diluted to a concentration of 3×10^4 FFU (FFU: focus-forming unit)/ml using the assay media. 200 μl diluted virus per well was aliquoted into a clear V-bottom 96-well plate (mixing plate). • 3) 1 μl above 400×concentrated compound dilutions was added from the compound plate to each well of the mixing plate. The plates were shaken on a plate shaker for 5 min. • 4) 50 μl compound-virus mixture was added into each well of the assay plates (the MOI is about 0.1). The plates were shaken gently by mixing the virus evenly. • An example of the format for assay plate:
• control. • 5) The plates were centrifuged at 1000 rpm for 15 s. • 6) The plates were incubated at 37° C. with 5% CO2 in a humidified incubator for 48 hrs. Day 4: Read Luciferase Signals • 7) The ViviRen™ Live Cell Substrate was diluted in assay media for 3000× folds. 25 μl of diluted substrates was added into each well of the assay plates. • For Nano-Glo assay system, 50 μl diluted substrates (50×fold diluted from the stock in assay buffer) were added. • 8) The plates were incubated at room temperature for 5 min. • 9) Optimally, cell viability is measured using the Promega Cell-titer Glo kit (only used when ZIKV-Rlu was used for infection). • 10) Luciferase signals were read using the Cytation 5 with gain value of 120-150. Data Analysis • a. The luciferase signals from DMSO-treated groups (un-treated controls) were set as 100%. The relative luciferase signals were obtained by normalizing the luciferase signals from each dilution-treated group to that of the controls. • b.

As usually defined, the EC50 is the concentration needed to bring the measured effect to its halfway point.

`CC[C@H](C)[C@H](NC(=O)OC)C(=O)N1CC2(CC2)C[C@H]1c1nc(Cl)c(-c2cc3c4c(c2)OCc2cc(-c5[nH]c([C@@H]6CC7(CC7)CN6C(=O)[C@@H](NC(=O)OC)[C@@H](C)CC)nc5C(C)C)cc(c2-4)OC3)[nH]1` [Compound 16, methyl ((2S,3S)-1-((S)-6-(5-(7-(4-chloro-2-((S)-5-((methoxycarbonyl)-L-isoleucyl)-5-azaspiro[2.4]heptan-6-yl)-1H-imidazol-5-yl)-5,10-dihydrochromeno[5,4,3-cde]chromen-2-yl)-4-isopropyl-1H-imidazol-2-yl)-5-azaspiro[2.4]heptan-5-yl)-3-methyl-1-oxopentan-2-yl)carbamate]: the EC50 was found to be 2.3 nM.
Regarding `COC(=O)N[C@H](C(=O)N1C[C@@H](F)C[C@H]1c1nc(Cl)c(-c2cc3c4c(c2)OCc2cc(-c5[nH]c([C@@H]6C[C@H](F)CN6C(=O)[C@@H](NC(=O)OC)C(C)C)nc5Cl)cc(c2-4)OC3)[nH]1)C(C)C` [Compound 50, dimethyl ((2S,2′S)-((3S,3′S,5S,5′S)-((5,10-dihydrochromeno[5,4,3-cde]chromene-2,7-diyl)bis(4-chloro-1H-imidazole-5,2-diyl))bis(3-fluoropyrrolidine-5,1-diyl))bis(3-methyl-1-oxobutane-1,2-diyl))dicarbamate], the EC50 was 240 nM.
Under `COC(=O)N[C@H](C(=O)N1CC2(CC2)C[C@H]1c1nc(Cl)c(-c2cc3c4c(c2)OCc2cc(-c5[nH]c([C@@H]6CC7(CC7)CN6C(=O)[C@@H](NC(=O)OC)C(C)(C)C(F)(F)F)nc5Cl)cc(c2-4)OC3)[nH]1)C(C)(C)C(F)(F)F` [Compound 61, dimethyl ((2S,2′S)-((6S,6′S)-((5,10-dihydrochromeno[5,4,3-cde]chromene-2,7-diyl)bis(4-chloro-1H-imidazole-5,2-diyl))bis(5-azaspiro[2.4]heptane-6,5-diyl))bis(4,4,4-trifluoro-3,3-dimethyl-1-oxobutane-1,2-diyl))dicarbamate] stands 2.8 nM.
`COC(=O)N[C@H](C(=O)N1C[C@H](C)C[C@H]1c1nc(Cl)c(-c2cc3c4c(c2)OCc2cc(-c5[nH]c([C@@H]6C[C@@H](C)CN6C(=O)[C@@H](NC(=O)OC)C(C)(C)C(F)(F)F)nc5Cl)cc(c2-4)OC3)[nH]1)C(C)(C)C(F)(F)F` [Compound 3, dimethyl ((2S,2′S)-((3R,3′R,5S,5′S)-((5,10-dihydrochromeno[5,4,3-cde]chromene-2,7-diyl)bis(4-chloro-1H-imidazole-5,2-diyl))bis(3-methylpyrrolidine-5,1-diyl))bis(4,4,4-trifluoro-3,3-dimethyl-1-oxobutane-1,2-diyl))dicarbamate]: the 50% effective concentration (EC50) turned out to be 5.2 nM.
For `COC(=O)N[C@H](C(=O)N1[C@H](c2nc(Cl)c(-c3cc4c5c(c3)OCc3cc(-c6[nH]c([C@@H]7C[C@@H]8CCC[C@@H]8N7C(=O)[C@@H](NC(=O)OC)C(C)C)nc6Cl)cc(c3-5)OC4)[nH]2)C[C@@H]2CCC[C@@H]21)C(C)C` [Compound 29, dimethyl ((2S,2′S)-((2S,2′S,3aS,3a′S,6aS,6a′S)-((5,10-dihydrochromeno[5,4,3-cde]chromene-2,7-diyl)bis(4-chloro-1H-imidazole-5,2-diyl))bis(hexahydrocyclopenta[b]pyrrole-2,1(2H)-diyl))bis(3-methyl-1-oxobutane-1,2-diyl))dicarbamate] the value was 1.8 nM; for `COC(=O)N[C@H](C(=O)N1C[C@@H](C)C[C@H]1c1nc(Cl)c(-c2cc3c4c(c2)OCc2cc(-c5[nH]c([C@@H]6C[C@H](C)CN6C(=O)[C@@H](NC(=O)OC)C(C)C)nc5C(C)C)cc(c2-4)OC3)[nH]1)C(C)C` [Compound 80, methyl ((S)-1-((2S,4S)-2-(5-(7-(4-chloro-2-((2S,4S)-1-((methoxycarbonyl)-L-valyl)-4-methylpyrrolidin-2-yl)-1H-imidazol-5-yl)-5,10-dihydrochromeno[5,4,3-cde]chromen-2-yl)-4-isopropyl-1H-imidazol-2-yl)-4-methylpyrrolidin-1-yl)-3-methyl-1-oxobutan-2-yl)carbamate], 5.7 nM; for `COC(=O)N[C@H](C(=O)N1CC2(CC2)C[C@H]1c1nc(Cl)c(-c2cc3c4c(c2)OCc2cc(-c5[nH]c([C@@H]6CC7(CC7)CN6C(=O)[C@@H](NC(=O)OC)C(C)C)nc5Cl)cc(c2-4)OC3)[nH]1)C(C)C` [Compound 59, dimethyl ((2S,2′S)-((6S,6′S)-((5,10-dihydrochromeno[5,4,3-cde]chromene-2,7-diyl)bis(4-chloro-1H-imidazole-5,2-diyl))bis(5-azaspiro[2.4]heptane-6,5-diyl))bis(3-methyl-1-oxobutane-1,2-diyl))dicarbamate], 1.5 nM.
For the compound `CC[C@H](C)[C@H](NC(=O)OC)C(=O)N1CCC[C@@]1(C)c1nc(Cl)c(-c2cc3c4c(c2)OCc2cc(-c5[nH]c([C@]6(C)CCCN6C(=O)[C@@H](NC(=O)OC)[C@@H](C)CC)nc5Cl)cc(c2-4)OC3)[nH]1` [Compound 66, dimethyl ((2S,2′S,3S,3′S)-((2S,2′S)-((5,10-dihydrochromeno[5,4,3-cde]chromene-2,7-diyl)bis(4-chloro-1H-imidazole-5,2-diyl))bis(2-methylpyrrolidine-2,1-diyl))bis(3-methyl-1-oxopentane-1,2-diyl))dicarbamate], the concentration giving a half-maximal response (EC50) stood at 44 nM.
Under `COC(=O)N[C@H](C(=O)N1CC(C)(C)C[C@H]1c1nc(Cl)c(-c2cc3c4c(c2)OCc2cc(-c5[nH]c([C@@H]6CC(C)(C)CN6C(=O)[C@@H](NC(=O)OC)C(C)(C)C(F)(F)F)nc5Cl)cc(c2-4)OC3)[nH]1)C(C)(C)C(F)(F)F` [Compound 9, dimethyl ((2S,2′S)-((5S,5′S)-((5,10-dihydrochromeno[5,4,3-cde]chromene-2,7-diyl)bis(4-chloro-1H-imidazole-5,2-diyl))bis(3,3-dimethylpyrrolidine-5,1-diyl))bis(4,4,4-trifluoro-3,3-dimethyl-1-oxobutane-1,2-diyl))dicarbamate] stands 4.6 nM; under `CC[C@H](C)[C@H](NC(=O)OC)C(=O)N1CC(F)(F)C[C@H]1c1nc(Cl)c(-c2cc3c4c(c2)OCc2cc(-c5[nH]c([C@@H]6CC(F)(F)CN6C(=O)[C@@H](NC(=O)OC)[C@@H](C)CC)nc5Cl)cc(c2-4)OC3)[nH]1` [Compound 57, dimethyl ((2S,2′S,3S,3′S)-((5S,5′S)-((5,10-dihydrochromeno[5,4,3-cde]chromene-2,7-diyl)bis(4-chloro-1H-imidazole-5,2-diyl))bis(3,3-difluoropyrrolidine-5,1-diyl))bis(3-methyl-1-oxopentane-1,2-diyl))dicarbamate], 4.6 nM; under `COC(=O)N[C@H](C(=O)N1CCCC[C@H]1c1nc(Cl)c(-c2cc3c4c(c2)OCc2cc(-c5[nH]c([C@@H]6CCCCN6C(=O)[C@@H](NC(=O)OC)C(C)C)nc5Cl)cc(c2-4)OC3)[nH]1)C(C)C` [Compound 13, dimethyl ((2S,2′S)-((2S,2′S)-((5,10-dihydrochromeno[5,4,3-cde]chromene-2,7-diyl)bis(4-chloro-1H-imidazole-5,2-diyl))bis(piperidine-2,1-diyl))bis(3-methyl-1-oxobutane-1,2-diyl))dicarbamate], 4.5 nM.
